Laboratory results published in patent US20240174690A1, “ANNULATED 2-AMINO-3-CYANO THIOPHENES AND DERIVATIVES FOR THE TREATMENT OF CANCER” (BOEHRINGER INGELHEIM INTERNATIONAL GMBH, priority 2021, published 2024).
pIC50: −log10 of the molar value.

Assays:
Assay type in all cases: cell-based
LOVO cells = test: LOVO CTG proliferation assay (120 h) (CRC, G13D); conditions: Homo sapiens, CTG 120 h
Experimental: LOVO CTG Proliferation Assay (120 h) (CRC, G13D)
LOVO cells (ATCC CCL-229) are dispensed into 384-well plates, flat and clear bottom (Greiner, PNr. 781091) at a density of 1000 cells per well in 60 μL DMEM (Sigma D6429)+10% Fetal Calf Serum (HyClone, PNr.: SH30084.03) and incubated at 37° C. in a CO2 incubator overnight. The next day, compounds (10 mM stock in DMSO) are added with the ECHO acoustic liquid handler system (Beckman Coulter), including DMSO controls. Plates are incubated for 120 h, and cell viability is measured using CellTiter-Glo luminescent cell viability reagent (Promega product code G7570). Viability (stated as percent of control) is defined as relative luminescence units RLU of each well divided by the RLU of cells in DMSO controls. IC50 values are determined from viability measurements by non-linear regression using a four-parameter model.

AsPC-1 cells = test: AsPC-1 CTG proliferation assay (120 h) (pancreatic cancer, G12D); conditions: Homo sapiens, ASPC1
Experimental: AsPC-1 CTG Proliferation Assay (120 h) (Pancreatic Cancer, G12D)
The CTG assay is designed to measure quantitatively the proliferation of AsPC-1 cells (ATCC […]), using the CellTiter Glow Assay Kit (Promega G7571). Cells are grown in RPMI medium (ATCC) supplemented with Fetal Calf Serum (Life Technologies, Gibco BRL, Cat. No. 10270-106). On “day 0” 2000 AsPC-1 cells are seeded in 60 μL RPMI ATCC+10% FCS+Penstrep in a 384-well plate, flat and clear bottom (Greiner, PNr. 781091). Cells are then incubated in the plates at 37° C. in a CO2 incubator overnight. On day 1, compounds (10 mM stock in DMSO) are added with the ECHO acoustic liquid handler system (Beckman Coulter), including DMSO controls. Plates are incubated for 120 h, and cell viability is measured using CellTiter-Glo luminescent cell viability reagent (Promega product code G7570). Viability (stated as percent of control) is defined as relative luminescence units RLU of each well divided by the RLU of cells in DMSO controls. IC50 values are determined from viability measurements by non-linear regression using a four-parameter model.

[1] = test system: KRAS G12D-dependent Ba/F3 cells; test: Ba/F3 proliferation assay, KRAS G12D; conditions: Mus musculus, BaF3, 72 h, AlamarBlue
Experimental: Plasmids containing KRASG12 mutants (i.e. […], G12C, G12V) are obtained from GeneScript. To generate KRASG12-dependent Ba/F3 models, Ba/F3 cells are transduced with retroviruses containing vectors that harbor KRASG12 isoforms. Platinum-E cells (Cell Biolabs) are used for retrovirus packaging. Retrovirus is added to Ba/F3 cells. To ensure infection, 4 μg/mL polybrene is added and cells are spinfected. […] Cells with an infection efficiency of 10% to 20% are further cultivated and puromycin selection with 1 μg/mL is initiated. As a control, parental Ba/F3 cells are used to show selection status. Selection is considered successful when parental Ba/F3 cells cultures died. To evaluate the transforming potential of KRASG12 mutations, the growth medium is no longer supplemented with IL-3. Ba/F3 cells harboring the empty vector are used as a control. Approximately ten days before conducting the experiments, puromycin is left out.
Compounds are added using an Access Labcyte Workstation with a Labcyte Echo 550 or 555 accoustic dispenser. All treatments are performed in technical duplicates. […] AlamarBlue™ (ThermoFisher), a viability stain, is added and fluorescence measured in the PerkinElmer Envision HTS Multilabel Reader. The raw data are imported into and analyzed with the Boehringer Ingelheim proprietary software MegaLab (curve fitting based on the program PRISM, GraphPad Inc.).

Row | SMILES | pIC50 (LOVO cells) | pIC50 (AsPC-1 cells) | pIC50 [1]
1 | C[C@H](Oc1cc(-c2cn(C3COC3)nn2)nc(-c2noc3c2CCC[C@@]32CCCc3sc(N)c(C#N)c32)n1)[C@@H]1CCCN1C [II-100] | 7.08 | 5.01 | 7.25
2 | C[C@H](Oc1cc(-c2ccn(-c3ccccc3)n2)nc(-c2noc3c2CCC[C@@]32CCCc3sc(N)c(C#N)c32)n1)[C@@H]1CCCN1C [II-89] | 6.34 | 5.52 | 6.70
3 | C[C@H](Oc1cc(-c2ccn3ncnc3c2)nc(-c2noc3c2CCC[C@@]32CCCc3sc(N)c(C#N)c32)n1)[C@@H]1CCCN1C [II-104] |  |  | 7.11
4 | C[C@H](Oc1cc(-c2ccn(C3CC3)n2)nc(-c2noc3c2CCC[C@@]32CCCc3sc(N)c(C#N)c32)n1)[C@@H]1CCCN1C [II-98] | 6.22 | 5.48 | 7.16
5 | C[C@H](Oc1cc(-n2cnc3cccnc32)nc(-c2noc3c2CCC[C@@]32CCCc3sc(N)c(C#N)c32)n1)[C@@H]1CCCN1C [II-65] | 6.54 | 5.45 | 6.91
6 | COC(=O)c1ccc(-c2cc(O[C@@H](C)[C@@H]3CCCN3C)nc(-c3noc4c3CCC[C@@]43CCCc4sc(N)c(C#N)c43)n2)o1 [II-114] | 6.85 | 5.64 | 7.00
7 | C[C@H](Oc1cc(N2CCc3cccnc32)nc(-c2noc3c2CCC[C@@]32CCCc3sc(N)c(C#N)c32)n1)[C@@H]1CCCN1C [II-90] | 6.13 | 5.42 | 6.40
8 | C[C@H](Oc1cc(-c2ccc(N)nc2)nc(-c2noc3c2CCC[C@@]32CCCc3sc(N)c(C#N)c32)n1)[C@@H]1CCCN1C [II-101] | 5.99 | 5.52 | 6.81
9 | C[C@H](Oc1cc(-n2ccnc2)nc(-c2noc3c2CCC[C@@]32CCCc3sc(N)c(C#N)c32)n1)[C@@H]1C[C@@H](F)CN1C [II-120] | 6.40 | 5.45 | 6.83
10 | COCc1cn(-c2cc(O[C@@H](C)[C@@H]3CCCN3C)nc(-c3noc4c3CCC[C@@]43CCCc4sc(N)c(C#N)c43)n2)nn1 [II-121] | 6.89 | 5.51 | 7.11
11 | C[C@H](Oc1cc(N2CCN3CCC3C2)nc(-c2onc3c2CCC[C@@]32CCCc3sc(N)c(C#N)c32)n1)[C@@H]1CCCN1C (stereo partly shown) [I-9] | 6.19 | 5.54 | 7.04
12 | C[C@H](Oc1cc(-c2cnn(C)n2)nc(-c2noc3c2CCC[C@@]32CCCc3sc(N)c(C#N)c32)n1)[C@@H]1CCCN1C [II-86] | 7.11 | 5.38 | 7.23
13 | C[C@H](Oc1cc(N2CCC(C#N)C2)nc(-c2noc3c2CCC[C@@]32CCCc3sc(N)c(C#N)c32)n1)[C@@H]1CCCN1C (stereo partly shown) [II-99] | 6.54 | 5.49 | 7.08
14 | C[C@H](Oc1cc(N2CCN(C)C2=O)nc(-c2noc3c2CCC[C@@]32CCCc3sc(N)c(C#N)c32)n1)[C@@H]1CCCN1C [II-75] | 6.55 | 5.81 | 7.08
15 | C[C@H](Oc1cc(-n2ccc(-c3ccccn3)n2)nc(-c2noc3c2CCC[C@@]32CCCc3sc(N)c(C#N)c32)n1)[C@@H]1CCCN1C [II-119] | 6.82 | 5.88 | 7.29
16 | Cc1cn(-c2cc(O[C@@H](C)[C@@H]3CCCN3C)nc(-c3noc4c3CCC[C@@]43CCCc4sc(N)c(C#N)c43)n2)nn1 [II-106] | 6.00 | 5.02 | 6.97
17 | C[C@H](Oc1cc(-c2ccn(-c3ccsc3)n2)nc(-c2noc3c2CCC[C@@]32CCCc3sc(N)c(C#N)c32)n1)[C@@H]1CCCN1C [II-84] | 6.54 | 5.51 | 7.10
18 | C[C@H](Oc1cc(-c2cncnc2)nc(-c2noc3c2CCC[C@@]32CCCc3sc(N)c(C#N)c32)n1)[C@@H]1CCCN1C [II-82] | 6.14 | 5.26 | 6.70
19 | C[C@H](Oc1cc(N2CCN(C)CC2)nc(-c2noc3c2CCC[C@@]32CCCc3sc(N)c(C#N)c32)n1)[C@@H]1CCCN1C [II-55] | 5.96 | 6.13 | 7.20
20 | CNC(=O)c1cn(-c2cc(O[C@@H](C)[C@@H]3CCCN3C)nc(-c3noc4c3CCC[C@@]43CCCc4sc(N)c(C#N)c43)n2)nn1 [II-122] | 6.74 | 5.47 | 6.88
21 | C[C@H](Oc1cc(-c2cn(C3CCOCC3)nn2)nc(-c2noc3c2CCC[C@@]32CCCc3sc(N)c(C#N)c32)n1)[C@@H]1CCCN1C [II-115] |  |  | 6.88

These reach a higher pIC50 [1]. Values come first.

Row | pIC50 (LOVO cells) | pIC50 (AsPC-1 cells) | pIC50 [1] | SMILES
22 | 5.77 | 6.25 | 7.62 | C[C@H](Oc1cc(N2CC[C@H](N(C)C)C2)nc(-c2onc3c2CCC[C@@]32CCCc3sc(N)c(C#N)c32)n1)[C@@H]1CCCN1C [I-11]
23 | 6.30 | 5.73 | 7.40 | C[C@H](Oc1cc(N2CCC[C@H](O)C2)nc(-c2noc3c2CCC[C@@]32CCCc3sc(N)c(C#N)c32)n1)[C@@H]1CCCN1C [II-57]
24 | 6.53 | 6.29 | 8.40 | C[C@H](Oc1cc(N2C[C@H](C)NC3(CC3)C2)nc(-c2onc3c2CCC[C@@]32CCCc3sc(N)c(C#N)c32)n1)[C@@H]1CCCN1C [I-8]
25 | 6.19 | 6.29 | 7.80 | C[C@H](Oc1cc(N2CC[C@H](N(C)C)C2)nc(-c2noc3c2CCC[C@@]32CCCc3sc(N)c(C#N)c32)n1)[C@@H]1CCCN1C [II-49]
26 | 7.14 | 5.65 | 7.46 | C[C@H](Oc1cc(N2CCC[C@@H](O)C2)nc(-c2noc3c2CCC[C@@]32CCCc3sc(N)c(C#N)c32)n1)[C@@H]1CCCN1C [II-59]
27 | 7.29 | 6.01 | 7.96 | C[C@H](Oc1cc([C@@H]2CCOC2)nc(-c2noc3c2CCC[C@@]32CCCc3sc(N)c(C#N)c32)n1)[C@@H]1CCCN1C [II-94]
28 | 5.66 | 5.29 | 7.48 | C[C@H](Oc1cc(-c2ccn(C3COC3)n2)nc(-c2noc3c2CCC[C@@]32CCCc3sc(N)c(C#N)c32)n1)[C@@H]1C[C@H](F)CN1C [II-83]
29 | 7.31 | 5.55 | 7.42 | C[C@H](Oc1cc(C2=CCOCC2)nc(-c2noc3c2CCC[C@@]32CCCc3sc(N)c(C#N)c32)n1)[C@@H]1CCCN1C [II-67]
30 | 7.29 | 5.40 | 7.52 | C[C@H](Oc1cc(C2CCOCC2)nc(-c2noc3c2CCC[C@@]32CCCc3sc(N)c(C#N)c32)n1)[C@@H]1CCCN1C [II-76]
31 | 7.28 | 5.76 | 7.59 | C[C@H](Oc1cc(-n2ccnc2)nc(-c2noc3c2CCC[C@@]32CCCc3sc(N)c(C#N)c32)n1)[C@@H]1CCCN1C [II-69]
32 | 7.21 | 5.70 | 7.82 | C[C@H](Oc1cc([C@H]2CCOC2)nc(-c2noc3c2CCC[C@@]32CCCc3sc(N)c(C#N)c32)n1)[C@@H]1CCCN1C [II-88]
33 | 7.41 | 6.13 | 7.55 | C[C@H](Oc1cc(N2CCOC3(COC3)C2)nc(-c2noc3c2CCC[C@@]32CCCc3sc(N)c(C#N)c32)n1)[C@@H]1CCCN1C [II-77]
34 | 5.79 | 6.85 | 8.15 | C[C@H](Oc1cc(N2CCNC[C@]23CCOC3)nc(-c2noc3c2CCC[C@@]32CCCc3sc(N)c(C#N)c32)n1)[C@@H]1CCCN1C [II-50]
35 |  |  | 8.05 | C[C@H](Oc1cc(N2CCNCC23CCOC3)nc(-c2onc3c2CCC[C@@]32CCCc3sc(N)c(C#N)c32)n1)[C@@H]1CCCN1C (stereo partly shown) [I-10]
36 |  |  | 7.68 | Cc1nc(-c2cc(O[C@@H](C)[C@@H]3CCCN3C)nc(-c3noc4c3CCC[C@@]43CCCc4sc(N)c(C#N)c43)n2)cs1 [II-103]
